Test results reported in ChEMBL document CHEMBL1156829 (Proc Natl Acad Sci U S A, 2008).

Legend:
[1] = NOVARTIS: Cytotoxicity against human hepatocellular carcinoma cell line (Huh7); type: toxicity, cell-based, Huh-7; settings: Huh7 cells (hepatocellular carcinoma cell line)
[2] = tested on: Plasmodium falciparum; test: NOVARTIS: Inhibition of Plasmodium falciparum W2 (drug-resistant) proliferation in erythrocyte-based infection assay; type: functional, organism-based; settings: Plasmodium falciparum, W2; read-out: EC50
[3] = tested on: Plasmodium falciparum; test: NOVARTIS: Inhibition of Plasmodium falciparum 3D7 (drug-susceptible) proliferation in erythrocyte-based infection assay; type: functional, organism-based; settings: Plasmodium falciparum, 3D7

Row | SMILES | CC50 [1] [µM] | EC50 [2] [µM] | EC50 [3] [µM]
1 | C[n+]1ccc(/C=C/c2ccccc2F)c2ccccc21 | > 10 | < 0.00524 | 0.0653
2 | CC(C)(C)c1ccc(C(=O)Nc2ccc(NC(=O)c3ccc(-c4cccc([N+](=O)[O-])c4)o3)cc2)cc1 | > 10 | > 0.429 | > 1.46
3 | O=C(NCCc1ccc(Cl)cc1)C1CCCN(c2nnc(N3CCCC3=O)s2)C1 (centres undefined) | > 100 | 3.89 | > 12.5
4 | CCSc1sc2sccc2[n+]1CC | > 8.58 | 0.833 | 0.944
5 | CCOC(=O)c1cnc2c(C)cccc2c1Nc1ccc(C(C)=O)cc1 | > 100 | 0.0846 | 0.119
6 | CC(=O)N(C1=C(N(C)C)C(=O)c2ccccc2C1=O)c1cccc(Cl)c1 | 3.18 | 0.0649 | 0.0273
7 | CCc1c(C)c(C#N)c2nc3ccccc3n2c1Nc1ccc(C)c(Cl)c1 | > 100 | 0.233 | 1.09
8 | CN(C)c1ccc(C=NNc2ncnc3nc[nH]c23)cc1 | 11 | 0.138 | 0.167
9 | CN(C)CCCNc1ncnc2c1[nH]c1ccc(Br)cc12 | 26.5 | 0.231 | 0.0481
10 | COc1ccccc1NC(=O)c1cnn(-c2ccccc2)c1-n1cccc1 | > 10 | 0.494 | > 0.119
11 | CCNC(=O)N1CCN(CCN(C/C=C/c2ccccc2OC)C(=O)CC(C)CC(C)(C)C)CC1 (centres undefined) | > 10 | 1.43 | > 1.25
12 | CCOC(=O)c1c(C)oc2c1C(=O)c1ccccc1C2=O | 49.3 | 0.71 | 1.96
13 | COc1ccccc1N1CCN(c2c3c(nc4nncn24)CCC3)CC1 | > 10 | > 1.25 | > 0.736
14 | Cc1ccc(Cn2c(N3CCC(C(=O)NCc4ccccn4)CC3)nc3ccccc32)cc1 | > 100 | 0.185 | 0.484
15 | O=C(Nc1ccc2c3c(cccc13)CC2)c1cccc2ccccc12 | > 10 | > 1.25 | > 1.2
16 | CCN(CC)c1nc(S)nc(NC(C)(C)C)n1 | > 100 | > 8.81 | > 12.5
17 | COc1ccc(Cn2c(C)nc3cc(NC(=O)Nc4ccccc4)c(C)nc32)cc1 | > 100 | 0.11 | 0.373
18 | CCCCCCc1cc(O)c2c3c(c(=O)oc2c1)CCC(C)C3 (centres undefined) | > 100 | 0.297 | 0.364
19 | CC1(C)C(=O)C2(CCCCC2)C(=O)OC1C=Cc1ccccc1 (centres undefined) | > 100 | 1.54 | > 12.5
20 | CCN1CCN(c2cc(C)c3cc(NC(=O)c4cccc([N+](=O)[O-])c4)ccc3n2)CC1 | 20.3 | 0.267 | 0.096
21 | Clc1ccc(-c2csc3ncnc(NCc4ccncc4)c23)cc1 | > 100 | 0.746 | 2.89
22 | CCCCNC(=O)c1ccc2c(c1)N=C(c1cccnc1)N(CCN1CCOCC1)C2 | > 10.4 | > 1.06 | > 1.25
23 | CN(C)CCn1c(=N)n(CC(O)c2ccc(Cl)c(Cl)c2)c2ccccc21 (centres undefined) | > 10 | 0.457 | 0.256
24 | CCCCCC(=O)N1c2ccccc2N=C2CC(c3ccc(OC)c(OC)c3)CC(O)=C2C1c1ccc(C(F)(F)F)cc1 (centres undefined) | > 100 | 0.047 | 0.107
25 | O=C(Nc1ccc(-c2nc3ccc(-c4nc5ccc(NC(=O)c6cccc7ccccc67)cc5[nH]4)cc3[nH]2)cc1)c1cccc2ccccc12 | > 100 | 0.641 | 0.742
26 | O=C(/C=C/c1ccccc1)NNC(=O)c1cccnc1 | > 9.45 | > 0.75 | > 1.25
27 | Fc1ccc(-c2c[n+](Cc3ccc(Cl)cc3Cl)c3n2CCC3)cc1 | > 100 | 0.88 | 1.45
28 | CCN(CC)CCCC(C)Nc1c2ccc(Cl)cc2nc2ccc(OC)cc12 (centres undefined) [QUINACRINE] | 19.6 | 0.0142 | 0.00813
